# Read-outs that look alike come from different tables or passages of the source.
# Test system: M abscessus ATCC 19977 Type strain
# Assay: checkerboard minimum inhibitory concentration (MIC) assay with FICI calculation
# Type: cell-based
# Details: for MIC: 168 h; for Active Agent-Y MIC Combination: MIC of the labelled Antiinfective-Y in combination with amikacin; for Definition (interpretation of FICI) / FICI (Fractional Inhibitory Concentration Index): labelled Antiinfective-Y in combination with amikacin
# [1] = read-out: Active Agent-Y MIC Alone
# [2] = Antiinfective-Y alone, M abscessus ATCC 19977, 37° C., 7 days, absorbance 595 nm, read-out: Active Agent-Y MIC Alone
Structure (SMILES),"MIC (amikacin alone (column 12 of the checkerboard plate run with the row's Antiinfective-Y), M abscessus ATCC 19977, 37° C., 7 days, absorbance 595 nm, read-out: Amikacin (Active Agent-X) MIC Alone)","Amikacin (Active Agent-X) MIC Alone (amikacin alone (column 12 of the checkerboard plate run with the row's Antiinfective-Y), M abscessus ATCC 19977, 37° C., 7 days, absorbance 595 nm)",MIC [1],"Active Agent-Y MIC Combination (M abscessus ATCC 19977, 7 days)",Definition (interpretation of FICI) (M abscessus ATCC 19977),FICI (Fractional Inhibitory Concentration Index) (M abscessus ATCC 19977),MIC [2]
NCC[C@H](O)C(=O)N[C@@H]1C[C@H](N)[C@@H](O[C@H]2O[C@H](CN)[C@@H](O)[C@H](O)[C@H]2O)[C@H](O)[C@H]1O[C@H]1O[C@H](CO)[C@@H](O)[C@H](N)[C@H]1O [Amikacin],2 µg/mL,1 µg/mL,–,–,–,–,–
COc1nc2ccc(Br)cc2cc1[C@@H](c1ccccc1)[C@@](O)(CCN(C)C)c1cccc2ccccc12 [Bedaquiline],–,–,2 µg/mL,0.125 µg/mL,Synergy (<0.5),0.09,–
C[C@@H](O)[C@H]1C(=O)N2C(C(=O)[O-])=C(SC3Cn4cnc[n+]4C3)[C@H](C)[C@H]12 (some centres unmarked) [Biapenem],–,–,–,0.0625 µg/mL,Synergy (<0.5),0.07,8 µg/mL
C=CC1=C(C(=O)O)N2C(=O)[C@@H](NC(=O)/C(=N\O)c3csc(N)n3)[C@H]2SC1 [Cefdinir],–,–,–,0.5 µg/mL,Synergy (<0.5),0.13,8 µg/mL
CC[C@H]1OC(=O)[C@H](C)[C@@H](O[C@H]2C[C@@](C)(OC)[C@@H](O)[C@H](C)O2)[C@H](C)[C@@H](O[C@@H]2O[C@H](C)C[C@H](N(C)C)[C@H]2O)[C@](C)(OC)C[C@@H](C)C(=O)[C@H](C)[C@@H](O)[C@]1(C)O [Clarithromycin],–,–,–,0.25 µg/mL,Additive,2.50,0.5 µg/mL
CC(C)/N=c1\cc2n(-c3ccc(Cl)cc3)c3ccccc3nc-2cc1Nc1ccc(Cl)cc1 [Clofazimine],–,–,2 µg/mL,0.0625 µg/mL,Synergy (<0.5),0.16,–
C[C@@H](O)[C@H]1C(=O)N2C(C(=O)O)=C(S[C@@H]3CN[C@H](CNS(N)(=O)=O)C3)[C@H](C)[C@H]12 [Doripenem],–,–,–,0.25 µg/mL,Synergy (<0.5),0.31,4 µg/mL
CC[C@@H](CO)NCCN[C@@H](CC)CO [Ethambutol],–,–,16 µg/mL,4 µg/mL,Synergy (<0.5),0.38,–
C[C@@H](O)[C@H]1C(=O)N2C(C(=O)O)=C(SCCN=CN)C[C@H]12 [Imipenem],–,–,–,0.25 µg/mL,Synergy (<0.5),0.38,2 µg/mL
C[C@H]1COc2c(N3CCN(C)CC3)c(F)cc3c(=O)c(C(=O)O)cn1c23 [Levofloxacin],–,–,4 µg/mL,0.0625 µg/mL,Synergy (<0.5),0.14,–
CC(=O)NC[C@H]1CN(c2ccc(N3CCOCC3)c(F)c2)C(=O)O1 [Linezolid],–,–,–,2 µg/mL,Additive,3.00,2 µg/mL
COc1c(N2C[C@@H]3CCCN[C@@H]3C2)c(F)cc2c(=O)c(C(=O)O)cn(C3CC3)c12 [Moxifloxacin],–,–,1 µg/mL,0.125 µg/mL,Synergy (<0.5),0.38,–
CO[C@H]1/C=C/O[C@@]2(C)Oc3c(C)c(O)c4c(c3C2=O)C2=NC3(CCN(CC(C)C)CC3)NC2=C(NC(=O)/C(C)=C\C=C\[C@H](C)[C@H](O)[C@@H](C)[C@@H](O)[C@@H](C)[C@H](OC(C)=O)[C@@H]1C)C4=O [Rifabutin],–,–,–,0.0625 µg/mL,Synergy (<0.5),0.31,1 µg/mL
CO[C@H]1/C=C/O[C@@]2(C)Oc3c(C)c(O)c4c(O)c(c(/C=N/N5CCN(C)CC5)c(O)c4c3C2=O)NC(=O)/C(C)=C\C=C\[C@H](C)[C@H](O)[C@@H](C)[C@@H](O)[C@@H](C)[C@H](OC(C)=O)[C@@H]1C [Rifampicin],–,–,8 µg/mL,0.5 µg/mL,Synergy (<0.5),0.31,–
C[C@@H](O)[C@H]1C(=O)N2C(C(=O)O)=C(SC3CN(C4=NCCS4)C3)[C@H](C)[C@H]12 [Tebipenem],–,–,–,0.25 µg/mL,Synergy (<0.5),0.28,8 µg/mL
Cn1nnc(-c2ccc(-c3ccc(N4C[C@H](CO)OC4=O)cc3F)cn2)n1 [Tedizolid],–,–,–,0.5 µg/mL,Additive,3.00,0.5 µg/mL
COc1ccc2cc1Oc1ccc(cc1)C[C@H]1c3cc(c(OC)cc3CCN1C)Oc1c(OC)c(OC)cc3c1[C@H](C2)N(C)CC3 [Tetrandrine],–,–,64 µg/mL,8 µg/mL,Synergy (<0.5),0.25,–
CN(C)c1cc(NC(=O)CNC(C)(C)C)c(O)c2c1C[C@H]1C[C@H]3[C@H](N(C)C)C(O)=C(C(N)=O)C(=O)[C@@]3(O)C(O)=C1C2=O [Tigecycline],–,–,2 µg/mL,0.5 µg/mL,Additive,0.75,–
CN[C@H](CC(C)C)C(=O)N[C@H]1C(=O)N[C@@H](CC(N)=O)C(=O)N[C@H]2C(=O)N[C@H]3C(=O)N[C@H](C(=O)N[C@H](C(=O)O)c4cc(O)cc(O)c4-c4cc3ccc4O)[C@H](O)c3ccc(c(Cl)c3)Oc3cc2cc(c3O[C@@H]2O[C@H](CO)[C@@H](O)[C@H](O)[C@H]2O[C@H]2C[C@](C)(N)[C@H](O)[C@H](C)O2)Oc2ccc(cc2Cl)[C@H]1O [Vancomycin],–,–,4 µg/mL,1 µg/mL,Additive,0.50,–

# From patent US20250082570A1, “COMBINATION THERAPY FOR TREATING NON-TUBERCULOUS MYCOBACTERIAL LUNG DISEASE” (priority 2021, published 2025)
